Assay results reported in PMC9568543, “Bee-safe peptidomimetic acaricides achieved by comparative genomics” (Scientific Reports, 2022).
Where a SMILES comes first, the peptide text is derived from it. Where no end group is shown, it is not given here. [ ]: non-standard residue; d: D form. Oic = O=C(O)[C@@H]1C[C@@H]2CCCC[C@@H]2N1

What was measured:
[1] = molecular target: Varroa mite proctolin receptor (VdProctR) (Varroa destructor, UniProt A0A7T1TE40); assay: Receptor activity assay (aequorin luminescence), CHO cells transiently expressing the receptor, first set of ligands; format: cell-based; settings: activities at 1 μM and 10 μM
Chain of Varroa mite proctolin receptor (VdProctR) (A0A7T1TE40 entry or part of it): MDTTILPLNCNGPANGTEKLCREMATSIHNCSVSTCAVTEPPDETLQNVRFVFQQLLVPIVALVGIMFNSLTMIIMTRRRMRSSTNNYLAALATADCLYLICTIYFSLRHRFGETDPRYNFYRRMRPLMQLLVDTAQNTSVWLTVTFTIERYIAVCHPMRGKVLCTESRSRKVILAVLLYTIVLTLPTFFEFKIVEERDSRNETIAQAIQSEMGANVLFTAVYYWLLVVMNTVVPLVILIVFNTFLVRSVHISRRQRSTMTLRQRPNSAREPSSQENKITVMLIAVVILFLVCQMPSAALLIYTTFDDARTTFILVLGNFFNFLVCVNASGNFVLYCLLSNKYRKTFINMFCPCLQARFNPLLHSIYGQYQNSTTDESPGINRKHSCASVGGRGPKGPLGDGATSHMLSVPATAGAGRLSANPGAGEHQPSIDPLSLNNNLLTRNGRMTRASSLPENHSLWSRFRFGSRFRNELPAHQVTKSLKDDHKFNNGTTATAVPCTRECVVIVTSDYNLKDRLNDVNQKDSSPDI
Protocol: (§1) Approximately thirty hours after transfection, the cells were collected and preincubated with coelenterazine h for the functional assay, as previously described[30],[31],[52]. The ligands in serial dilutions were loaded into 96-well opaque plates. Cells treated with coelenterazine h were injected into each well on an Orion microplate luminometer (Berthold) luminescent plate reader. The luminescence was measured for 20 s immediately after the cell injections. Data analyses were performed to determine the accumulated luminescence value for 20 s after extraction of blank-well luminescence. […] The three biological replications were regressed for the dose–response curves with 95% confidence intervals (Table 1). For the tests of the second set of ligands, we used the cell line that stably expressed VdProctR, which were selected by Zeocin for 5 passages.

Varroa mites = assay: Varroa mite feeding assay (drop on gnathosoma), paralysis/death; format: in vivo, Varroa destructor; settings: 48 h; 200 nL on gnathosoma; 0.1 nM (methods) / 0.01 nM (Fig. 4 legend)
Protocol: In the continued bioassay, the toxicities were assessed by counting paralysis/death in feeding assay. A drop of 200 nL solution was placed on the gnathosoma of an immobilized mite for forced feedings of active components. Low levels of acute toxicities of peptidomimetics were indicated by lower than 50% effects within 6 h after the treatments. The toxic effects were increased over time and reached 100% of the effects in the 48 h treatments of 2336 (Fig. 4, ANOVA p < 0.05). In H2O control, about 10% or less of the number of individuals were paralyzed/dead. Accurate cause of the paralysis/death remains yet to be studied.
Adult female Varroa mites were collected using a sugar roll method from honey bee hives located at the East Campus apiary of the University of Nebraska (Lincoln, NE USA) in September–October 2019. The hives were not treated with chemicals for honey bee parasites or pathogens. The mites were sorted in the laboratory with a paint brush and tested within 4 h post collection. […] The number of affected (i.e., dead and/paralyzed) was observed and recorded at 1, 2, 6, 12, 24, and 48 h. The percent effect for each treatment was analyzed using a one-way analysis of variance (ANOVA) with a Tukey’s post-hoc test (GraphPad Prism, La Jolla, CA; p < 0.05).

CHO cells, empty vector = assay: Negative control, CHO cells transfected with the empty vector; format: cell-based, Chinese hamster; settings: 10 µM
Protocol: The receptor was also tested with a variety of peptide analogs and peptidomimetics.
Approximately thirty hours after transfection, the cells were collected and preincubated with coelenterazine h for the functional assay, as previously described[30],[31],[52]. The ligands in serial dilutions were loaded into 96-well opaque plates. Cells treated with coelenterazine h were injected into each well on an Orion microplate luminometer (Berthold) luminescent plate reader. The luminescence was measured for 20 s immediately after the cell injections. Data analyses were performed to determine the accumulated luminescence value for 20 s after extraction of blank-well luminescence. A dose–response curve was generated and the EC50 (50% effective concentration) was calculated in Origin 7 (OriginLab) as described in Jiang et al.[31],[53]. The three biological replications were regressed for the dose–response curves with 95% confidence intervals (Table 1). For the tests of the second set of ligands, we used the cell line that stably expressed VdProctR, which were selected by Zeocin for 5 passages.

[2] = tested on: honey bee FMRFamide receptor; assay: Activity on honey bee FMRFamide receptor expressed in CHO cells; format: cell-based, Apis mellifera
Protocol: as §1, with “Honey bee FMRFamide receptor was cloned and expressed in the same system as described for the proctolin receptor. […] Approximately” for “Approximately”, “dose-response” for “dose–response”

Bombyx mori larval gut = settings: cited from earlier work
honey bee queen = settings: injection, 1 µL containing 1 µg; cited from earlier work

Row | Compound | efficacy (maximal response) compared with proctolin [1] | effects (paralyzed or dead mites) (Varroa mites) | activity on empty-vector transfected cells (CHO cells, empty vector) | activity on honey bee FMRFamide receptor [2] | concentration required for hindgut contraction (Bombyx mori larval gut; Bombyx mori larval hindgut) | concentration required in the midgut to slightly reduce leucine uptake (Bombyx mori larval gut; Bombyx mori larval midgut) | effect on egg-laying activity of the queen (honey bee queen)
1 | CC(C)C[C@H](NC(=O)[C@H](Cc1ccc(O)cc1)NC(=O)[C@@H](N)CCCNC(=N)N)C(=O)N1[C@H](C(=O)N[C@H](C(=O)O)[C@@H](C)O)C[C@@H]2CCCC[C@@H]21 [Analog 2336, RYL[Oic]T] (H-RYL[Oic]T-OH; N-terminus and C-terminus assumed) | higher than that of proctolin | 100% |  |  |  |  | 
2 | RYLPT [Proctolin, RYLPT] |  |  | did not show any activity | no activities | 180 µM | 10 µM | increased the egg-laying activity
